Test system: MV-4-11 cells
Experiment: Gene expression microarray analysis (Affymetrix PrimeView) and GSEA
Type: cell-based, human
Parameters: RFU PODN (11730768_x_at) / Fold change /veh PODN (11730768_x_at) / RFU LINC00158 (11744669_a_at) / Fold change /veh LINC00158 (11744669_a_at) / RFU DUSP10 (11751237_a_at) / Fold change /veh DUSP10 (11751237_a_at) / RFU ID3 (11757404_x_at) / Fold change /veh ID3 (11757404_x_at) / RFU PLEKHG5 (11737974_s_at) / Fold change /veh PLEKHG5 (11737974_s_at) / RFU LRRC4B (11730491_at) / Fold change /veh LRRC4B (11730491_at) / RFU GIMAP4 (11747438_a_at) / Fold change /veh GIMAP4 (11747438_a_at) / RFU KRT8 (11758183_x_at) / Fold change /veh KRT8 (11758183_x_at) / RFU CNN1 (11734310_a_at) / Fold change /veh CNN1 (11734310_a_at) / RFU VPS37D (11726825_at) / Fold change /veh VPS37D (11726825_at) / RFU C10orf10 (11716522_x_at) / Fold change /veh C10orf10 (11716522_x_at) / RFU KIR2DL2 /// KIR2DL4 /// KIR2DL5A /// KIR2DL5B /// KIR2DS1 /// KIR2DS2 /// KIR2DS3 /// KIR2DS4 /// KIR3DL3 /// KIR3DL3 /// KIR3DS1 (11738374_at) / Fold change /veh KIR2DL2 /// KIR2DL4 /// KIR2DL5A /// KIR2DL5B /// KIR2DS1 /// KIR2DS2 /// KIR2DS3 /// KIR2DS4 /// KIR3DL3 /// KIR3DL3 /// KIR3DS1 (11738374_at) / RFU C1QL1 (11718748_at) / Fold change /veh C1QL1 (11718748_at) / RFU TMPRSS4 (11747572_a_at) / Fold change /veh TMPRSS4 (11747572_a_at) / RFU HAMP (11756126_x_at) / Fold change /veh HAMP (11756126_x_at) / RFU RNFT2 (11725882_a_at) / Fold change /veh RNFT2 (11725882_a_at) / RFU NR4A2 (11747474_a_at) / Fold change /veh NR4A2 (11747474_a_at) / RFU ABCC12 (11746883_a_at) / Fold change /veh ABCC12 (11746883_a_at) / RFU TMEM136 (11760407_x_at) / Fold change /veh TMEM136 (11760407_x_at) / RFU CLDN22 /// WWC2 (11732394_at) / Fold change /veh CLDN22 /// WWC2 (11732394_at) / RFU HLA-DPB1 (11760878_x_at) / Fold change /veh HLA-DPB1 (11760878_x_at) / RFU SPINT1 (11716480_a_at) / Fold change /veh SPINT1 (11716480_a_at) / RFU GAP43 (11754022_s_at) / Fold change /veh GAP43 (11754022_s_at) / RFU A4GNT (11735810_at) / Fold change /veh A4GNT (11735810_at) / RFU PRB3 (11715151_x_at) / Fold change /veh PRB3 (11715151_x_at) / RFU TUBB4B (11761932_at) / Fold change /veh TUBB4B (11761932_at) / RFU CAPN14 (11732068_a_at) / Fold change /veh CAPN14 (11732068_a_at) / RFU TMCC2 (11721928_a_at) / Fold change /veh TMCC2 (11721928_a_at) / RFU IRGQ (11745062_a_at) / Fold change /veh IRGQ (11745062_a_at) / RFU FAM174B (11720279_a_at) / Fold change /veh FAM174B (11720279_a_at) / RFU TMPRSS4 (11748680_a_at) / Fold change /veh TMPRSS4 (11748680_a_at) / RFU FAM212B (11763350_a_at) / Fold change /veh FAM212B (11763350_a_at) / RFU PLEKHG5 (11743358_a_at) / Fold change /veh PLEKHG5 (11743358_a_at) / RFU ZSCAN30 (11745921_a_at) / Fold change /veh ZSCAN30 (11745921_a_at) / RFU CMKLR1 (11741424_a_at) / Fold change /veh CMKLR1 (11741424_a_at) / RFU LOC101060620 /// MAPK8IP1 (11723275_at) / Fold change /veh LOC101060620 /// MAPK8IP1 (11723275_at) / RFU SPTSSB (11747773_x_at) / Fold change /veh SPTSSB (11747773_x_at) / RFU PRSS12 (11739890_at) / Fold change /veh PRSS12 (11739890_at) / RFU BIN1 (11741810_x_at) / Fold change /veh BIN1 (11741810_x_at) / RFU WNT11 (11732464_a_at) / Fold change /veh WNT11 (11732464_a_at) / RFU C10orf10 (11716521_a_at) / Fold change /veh C10orf10 (11716521_a_at) / RFU C5orf56 (11738089_at) / Fold change /veh C5orf56 (11738089_at) / RFU CYB561 (11721691_x_at) / Fold change /veh CYB561 (11721691_x_at) / RFU ANKRD19P (11752326_a_at) / Fold change /veh ANKRD19P (11752326_a_at) / RFU OR2T12 /// OR2T33 /// OR2T8 (11738714_s_at) / Fold change /veh OR2T12 /// OR2T33 /// OR2T8 (11738714_s_at) / RFU VCAN (11748164_a_at) / Fold change /veh VCAN (11748164_a_at) / RFU JSRP1 (11732532_at) / Fold change /veh JSRP1 (11732532_at) / RFU KRTAP10-11 (11738290_x_at) / Fold change /veh KRTAP10-11 (11738290_x_at) / RFU MYO3A (11730013_a_at) / Fold change /veh MYO3A (11730013_a_at) / RFU EBF3 (11725865_a_at) / Fold change /veh EBF3 (11725865_a_at) / RFU CAMK2N1 (11719241_x_at) / Fold change /veh CAMK2N1 (11719241_x_at) / RFU C5orf56 (11738088_a_at) / Fold change /veh C5orf56 (11738088_a_at) / RFU OLFML3 (11715873_a_at) / Fold change /veh OLFML3 (11715873_a_at) / RFU LOC100653217 /// NTM (11731650_a_at) / Fold change /veh LOC100653217 /// NTM (11731650_a_at) / RFU MAPK11 (11762145_a_at) / Fold change /veh MAPK11 (11762145_a_at) / RFU FIZ1 (11724087_x_at) / Fold change /veh FIZ1 (11724087_x_at) / RFU OASL (11726364_x_at) / Fold change /veh OASL (11726364_x_at) / RFU SOX15 (11748057_x_at) / Fold change /veh SOX15 (11748057_x_at) / RFU CD79A (11719716_a_at) / Fold change /veh CD79A (11719716_a_at) / RFU HIST1H1D (11736915_at) / Fold change /veh HIST1H1D (11736915_at) / RFU CASKIN2 (11723855_a_at) / Fold change /veh CASKIN2 (11723855_a_at) / RFU LOC730098 (11760151_x_at) / Fold change /veh LOC730098 (11760151_x_at) / RFU OR4N2 (11742367_at) / Fold change /veh OR4N2 (11742367_at) / RFU PRRT2 (11749266_a_at) / Fold change /veh PRRT2 (11749266_a_at) / RFU SNX32 (11753110_a_at) / Fold change /veh SNX32 (11753110_a_at) / RFU CDHR5 (11726645_a_at) / Fold change /veh CDHR5 (11726645_a_at) / RFU RCAN1 (11760418_a_at) / Fold change /veh RCAN1 (11760418_a_at) / RFU FAM167A (11723789_a_at) / Fold change /veh FAM167A (11723789_a_at) / RFU FAM26E (11764081_at) / Fold change /veh FAM26E (11764081_at) / RFU ISYNA1 (11749810_s_at) / Fold change /veh ISYNA1 (11749810_s_at) / RFU ACY1 (11761880_at) / Fold change /veh ACY1 (11761880_at) / RFU 11764098_at / Fold change /veh 11764098_at / RFU SAMD14 (11745864_x_at) / Fold change /veh SAMD14 (11745864_x_at) / RFU NPB (11741838_a_at) / Fold change /veh NPB (11741838_a_at) / RFU TMPRSS6 (11731388_a_at) / Fold change /veh TMPRSS6 (11731388_a_at) / RFU KRTAP10-2 (11738614_at) / Fold change /veh KRTAP10-2 (11738614_at) / RFU ARHGAP8 /// PRR5-ARHGAP8 (11727945_x_at) / Fold change /veh ARHGAP8 /// PRR5-ARHGAP8 (11727945_x_at) / RFU KRTAP5-7 /// NADSYN1 (11734609_at) / Fold change /veh KRTAP5-7 /// NADSYN1 (11734609_at) / RFU RASL12 (11751679_a_at) / Fold change /veh RASL12 (11751679_a_at) / RFU CDKN2B (11736163_a_at) / Fold change /veh CDKN2B (11736163_a_at) / RFU PRF1 (11729649_at) / Fold change /veh PRF1 (11729649_at) / RFU, ZNF638 /// ZNF638-IT1 / Fold change vs veh, ZNF638 /// ZNF638-IT1 / RFU, PANK3 / Fold change vs veh, PANK3 / RFU, SH3YL1 / Fold change vs veh, SH3YL1 / RFU, ZEB2 / Fold change vs veh, ZEB2 / RFU, NRIP1 / Fold change vs veh, NRIP1 / RFU, PTTG1IP / Fold change vs veh, PTTG1IP / RFU, CAPN2 / Fold change vs veh, CAPN2 / RFU, MED14 / Fold change vs veh, MED14 / RFU, SNORA58 / Fold change vs veh, SNORA58 / RFU, C1orf63 / Fold change vs veh, C1orf63 / RFU, LRRFIP1 / Fold change vs veh, LRRFIP1 / RFU, NDUFAF7 / Fold change vs veh, NDUFAF7 / RFU, SLC12A2 / Fold change vs veh, SLC12A2 / RFU, IBTK / Fold change vs veh, IBTK / RFU, ESF1 / Fold change vs veh, ESF1 / Fold change vs veh, TMEM50B / RFU, TAOK1 / Fold change vs veh, TAOK1 / RFU, ACBD3 / Fold change vs veh, ACBD3 / RFU, TMA16 / Fold change vs veh, TMA16 / RFU, RWDD3 / Fold change vs veh, RWDD3 / RFU, BCAT1 / Fold change vs veh, BCAT1 / RFU, EDEM3 / Fold change vs veh, EDEM3 / RFU, TMEM33 / Fold change vs veh, TMEM33 / RFU, WDR75 / Fold change vs veh, WDR75 / RFU, AHCTF1 / Fold change vs veh, AHCTF1 / RFU, TFRC / Fold change vs veh, TFRC / RFU, ZDHHC17 / Fold change vs veh, ZDHHC17 / RFU, NOM1 / Fold change vs veh, NOM1 / RFU, ARL8B / Fold change vs veh, ARL8B / RFU, ZBTB11 / Fold change vs veh, ZBTB11 / RFU, TAMM41 / Fold change vs veh, TAMM41 / RFU, KIAA1704 /// LOC100996395 / Fold change vs veh, KIAA1704 /// LOC100996395 / RFU, ING1 / Fold change vs veh, ING1 / RFU, TRMT61B / Fold change vs veh, TRMT61B / RFU, FUBP3 / Fold change vs veh, FUBP3 / RFU, TP53 / Fold change vs veh, TP53 / RFU, TNKS2 / Fold change vs veh, TNKS2 / RFU, ZFP14 / Fold change vs veh, ZFP14 / RFU, ACTR2 / Fold change vs veh, ACTR2 / RFU, PPP3R1 / Fold change vs veh, PPP3R1 / RFU, PIK3R1 / Fold change vs veh, PIK3R1 / RFU, HNRNPA1 / Fold change vs veh, HNRNPA1 / RFU, RNF170 / Fold change vs veh, RNF170 / RFU, ZNF28 / Fold change vs veh, ZNF28 / RFU, RNGTT / Fold change vs veh, RNGTT / RFU, OGT / Fold change vs veh, OGT / RFU, BRD1 / Fold change vs veh, BRD1 / RFU, MARS / Fold change vs veh, MARS / RFU, ZNF655 / Fold change vs veh, ZNF655 / RFU, FAHD1 / Fold change vs veh, FAHD1 / RFU, BDP1 / Fold change vs veh, BDP1 / RFU, LRRCC1 / Fold change vs veh, LRRCC1 / RFU, ARID1A / Fold change vs veh, ARID1A / RFU, ZNF146 / Fold change vs veh, ZNF146 / RFU, ZNF330 / Fold change vs veh, ZNF330 / RFU, GPN3 / Fold change vs veh, GPN3 / RFU, C9orf123 / Fold change vs veh, C9orf123 / RFU, N4BP2L2 / Fold change vs veh, N4BP2L2 / RFU, ARFIP1 / Fold change vs veh, ARFIP1 / RFU, FAM179B / Fold change vs veh, FAM179B / RFU, BCL10 / Fold change vs veh, BCL10 / RFU, UHRF1BP1L / Fold change vs veh, UHRF1BP1L / RFU, BET1 / Fold change vs veh, BET1 / RFU, CNOT2 / Fold change vs veh, CNOT2 / RFU, ZNF268 / Fold change vs veh, ZNF268 / Fold change vs veh, ZNF507 / RFU, DGCR2 / Fold change vs veh, DGCR2 / RFU, WDSUB1 / Fold change vs veh, WDSUB1 / Fold change vs veh, HSP90B1 /// MIR3652 / RFU, ADSS / Fold change vs veh, ADSS / RFU, GK / Fold change vs veh, GK / RFU, ZNF148 / Fold change vs veh, ZNF148 / RFU, TAF9 / Fold change vs veh, TAF9 / RFU, SLC1A5 / Fold change vs veh, SLC1A5 / RFU, SLMO2 / Fold change vs veh, SLMO2 / RFU, ABCC4 / Fold change vs veh, ABCC4 / RFU, LOC101060439 /// RAP1B / Fold change vs veh, LOC101060439 /// RAP1B / RFU, RFX7 / Fold change vs veh, RFX7 / RFU, GTPBP10 / Fold change vs veh, GTPBP10 / RFU, CNEP1R1 / Fold change vs veh, CNEP1R1 / RFU, BIVM-ERCC5 /// ERCC5 / Fold change vs veh, BIVM-ERCC5 /// ERCC5 / RFU, ILF3 / Fold change vs veh, ILF3 / RFU 11762660_at / Fold change /veh 11762660_at / RFU VCAN (11757783_s_at) / Fold change /veh VCAN (11757783_s_at) / RFU DDX43 (11728927_at) / Fold change /veh DDX43 (11728927_at) / RFU KRT8 (11758188_x_at) / Fold change /veh KRT8 (11758188_x_at) / RFU NKD1 (11759106_at) / Fold change /veh NKD1 (11759106_at) / RFU SRD5A1 (11742802_a_at) / Fold change /veh SRD5A1 (11742802_a_at) / RFU TPSAB1 /// TPSB2 (11721975_s_at) / Fold change /veh TPSAB1 /// TPSB2 (11721975_s_at) / RFU GSTM3 (11746129_a_at) / Fold change /veh GSTM3 (11746129_a_at) / RFU IL23R (11737362_x_at) / Fold change /veh IL23R (11737362_x_at) / RFU TMEM51 (11727254_a_at) / Fold change /veh TMEM51 (11727254_a_at) / RFU PIWIL2 (11732686_x_at) / Fold change /veh PIWIL2 (11732686_x_at) / RFU ORM1 (11744905_x_at) / Fold change /veh ORM1 (11744905_x_at) / RFU CCDC152 (11743942_at) / Fold change /veh CCDC152 (11743942_at) / RFU ECM1 (11717891_a_at) / Fold change /veh ECM1 (11717891_a_at) / RFU IL23R (11748794_a_at) / Fold change /veh IL23R (11748794_a_at) / RFU TNFAIP8L3 (11732012_x_at) / Fold change /veh TNFAIP8L3 (11732012_x_at) / RFU MBOAT4 (11741988_at) / Fold change /veh MBOAT4 (11741988_at) / RFU 11764193_at / Fold change /veh 11764193_at / RFU TMEM53 (11763286_at) / Fold change /veh TMEM53 (11763286_at) / RFU MAGEB2 (11727129_at) / Fold change /veh MAGEB2 (11727129_at) / RFU TMEM200A (11744735_a_at) / Fold change /veh TMEM200A (11744735_a_at) / RFU CCDC152 (11751479_a_at) / Fold change /veh CCDC152 (11751479_a_at) / RFU FAM211A (11726209_a_at) / Fold change /veh FAM211A (11726209_a_at) / RFU RGS16 (11746705_a_at) / Fold change /veh RGS16 (11746705_a_at) / RFU VCAN (11755009_s_at) / Fold change /veh VCAN (11755009_s_at) / RFU RHOB (11743442_s_at) / Fold change /veh RHOB (11743442_s_at) / RFU RGS16 (11720943_a_at) / Fold change /veh RGS16 (11720943_a_at) / RFU RGS16 (11720944_at) / Fold change /veh RGS16 (11720944_at) / RFU, VPS4B / Fold change vs veh, VPS4B / RFU, CREB1 / Fold change vs veh, CREB1 / RFU, DNAJC13 / Fold change vs veh, DNAJC13 / RFU, GNAQ / Fold change vs veh, GNAQ / RFU, CDK5R1 / Fold change vs veh, CDK5R1 / RFU, ZRANB3 / Fold change vs veh, ZRANB3 / RFU, CUL4A / Fold change vs veh, CUL4A / RFU, CCNY / Fold change vs veh, CCNY / RFU, UFL1 / Fold change vs veh, UFL1 / RFU, COG3 / Fold change vs veh, COG3 / RFU, DIAPH2 / Fold change vs veh, DIAPH2 / RFU, SKA2 / Fold change vs veh, SKA2 / RFU, AFF3 / Fold change vs veh, AFF3 / RFU, LMF1 / Fold change vs veh, LMF1 / RFU, IPO11 / Fold change vs veh, IPO11 / RFU, DFFB / Fold change vs veh, DFFB / RFU, FOXP1 / Fold change vs veh, FOXP1 / RFU, CARD8 / Fold change vs veh, CARD8 / RFU, STRN3 / Fold change vs veh, STRN3 / RFU, ADK / Fold change vs veh, ADK / RFU, RASSF2 / Fold change vs veh, RASSF2 / RFU, WIPF1 / Fold change vs veh, WIPF1 / RFU, LARP1B / Fold change vs veh, LARP1B / RFU, RASA1 / Fold change vs veh, RASA1 / RFU, RB1 / Fold change vs veh, RB1 / RFU, PPFIA1 / Fold change vs veh, PPFIA1 / RFU, MAT2A / Fold change vs veh, MAT2A / RFU, CCT5 / Fold change vs veh, CCT5 / RFU, WDR92 / Fold change vs veh, WDR92 / RFU, CUX1 / Fold change vs veh, CUX1 / RFU, TTC7A / Fold change vs veh, TTC7A / RFU, TMEM135 / Fold change vs veh, TMEM135 / RFU, DEPTOR / Fold change vs veh, DEPTOR / RFU, CPM / Fold change vs veh, CPM / RFU, DNAJB6 / Fold change vs veh, DNAJB6 / RFU, CACNA2D3 / Fold change vs veh, CACNA2D3 / RFU, DTX4 / Fold change vs veh, DTX4 / RFU, TFCP2 / Fold change vs veh, TFCP2 / RFU, GMCL1 /// GMCL1P1 / Fold change vs veh, GMCL1 /// GMCL1P1 / RFU, AEBP2 / Fold change vs veh, AEBP2 / RFU, SNHG1 /// SNORD22 /// SNORD25 /// SNORD26 /// SNORD27 /// SNORD28 /// SNORD29 /// SNORD31 / Fold change vs veh, SNHG1 /// SNORD22 /// SNORD25 /// SNORD26 /// SNORD27 /// SNORD28 /// SNORD29 /// SNORD31 / Fold change (Aza/veh), C12orf56 (ProbeSet 11735607_a_at) / Fold change (ACY-1035/veh), C12orf56 (ProbeSet 11735607_a_at) / Fold change (Aza/veh), FGFR1OP (ProbeSet 11751329_s_at) / Fold change (ACY-1035/veh), FGFR1OP (ProbeSet 11751329_s_at) / Fold change (Aza/veh), VPS36 (ProbeSet 11739960_a_at) / Fold change (ACY-1035/veh), VPS36 (ProbeSet 11739960_a_at) / RFU SYPL1 (11715823_x_at) / Fold change /veh SYPL1 (11715823_x_at) / RFU IGFBP7 (11715501_s_at) / Fold change /veh IGFBP7 (11715501_s_at) / RFU REEP3 (11722064_at) / Fold change /veh REEP3 (11722064_at) / RFU IGLL1 (11728026_x_at) / Fold change /veh IGLL1 (11728026_x_at): dose or concentration left out as unconfirmed
Details: ProbeSet 11724877_a_at; LIST D

In the case of `Nc1ccc(-c2cccs2)cc1NC(=O)c1ccc2c(c1)cc(C1CC1)n2CCN1CCOCC1` [ACY-1035], the “Fold change vs veh, AEBP2” value is reported as 1.03.
